Data from patent EP4678639A1, “SALT OF BENZIMIDAZOLE DERIVATIVE” (JW Pharmaceutical Corporation, priority 2023, dated 2024).

Key:
[1] = in vivo; cited from earlier work
[2] = Solubility comparative test (Korean Pharmacopoeia 'Solubility'); settings: solubility of the acid addition salt itself, without conversion to freebase
Description: The measurement was conducted according to the method described under "Solubility" in the General Notices of Appendix 1 of the 12th Edition of the Korean Pharmacopoeia. Each solubility was expressed by measuring the solubility of the acid addition salt itself, without conversion to the tegoprazan freebase.

[3] = Raw material stability test versus tegoprazan freebase (60 °C or 90 % RH); type: physicochemical

Cc1nc2cc(C(=O)N(C)C)cc(O[C@H]3CCOc4cc(F)cc(F)c43)c2[nH]1 [Tegoprazan Freebase Crystalline Form A]
Tmax delayed when administered after a meal compared to before a meal [1]: up to 8 hours | Solubility [2]: < 1000 µg/mL | change in appearance, 60 °C ([3]; 60 °C, 3 weeks): No change in appearance | change in appearance, 90 % RH ([3]; 90 % RH, 3 weeks): No change in appearance | change in appearance, Initial ([3]; initial): No change in appearance
